# Assay results reported in the supplement of paper PMC13380429.
# Key:
# Settings in all cases: 72 h
# [1] = system: Calu-3; experiment: cell viability relative to DMSO; higher = less toxic
# [2] = system: Vero E6; experiment: as above
# [3] = system: U2OS; experiment: as above
# [4] = system: Caco-2; experiment: as above
# [5] = system: HepG2; experiment: as above
# [6] = system: Calu-3; experiment: drug sensitivity score (DSS) for viability; higher = more toxic; extreme values may be limits of the assay
# [7] = system: Vero E6; experiment: as above
# [8] = system: U2OS; experiment: as above
# [9] = system: Caco-2; experiment: as above
# [10] = system: HepG2; experiment: as above
# [11] = system: Caco-2; experiment: relative viability EC50 (midpoint between 100% and the lowest measured viability); higher = less toxic
# [12] = system: HepG2; experiment: as above
# [13] = system: Calu-3; experiment: as above
# [14] = system: U2OS; experiment: as above
Structure (SMILES),cell viability ([1]; 1 nM) [%],cell viability ([1]; 10 nM) [%],cell viability ([1]; 100 nM) [%],cell viability ([1]; 1000 nM) [%],cell viability ([1]; 10000 nM) [%],cell viability ([2]; 1 nM) [%],cell viability ([2]; 10 nM) [%],cell viability ([2]; 100 nM) [%],cell viability ([2]; 1000 nM) [%],cell viability ([2]; 10000 nM) [%],cell viability ([3]; 1 nM) [%],cell viability ([3]; 10 nM) [%],cell viability ([3]; 100 nM) [%],cell viability ([3]; 1000 nM) [%],cell viability ([3]; 10000 nM) [%],cell viability ([4]; 1 nM) [%],cell viability ([4]; 10 nM) [%],cell viability ([4]; 100 nM) [%],cell viability ([4]; 1000 nM) [%],cell viability ([4]; 10000 nM) [%],cell viability ([5]; 1 nM) [%],cell viability ([5]; 10 nM) [%],cell viability ([5]; 100 nM) [%],cell viability ([5]; 1000 nM) [%],cell viability ([5]; 10000 nM) [%],drug sensitivity score [6],drug sensitivity score [7],drug sensitivity score [8],drug sensitivity score [9],drug sensitivity score [10],relative viability EC50 [11] [µM],relative viability EC50 [12] [µM],relative viability EC50 [13] [µM],relative viability EC50 [14] [µM]
Nc1ncnc2c1c(-c1cccc(OCc3ccccc3)c1)cn2[C@H]1C[C@@H](CN2CCC2)C1 [NVP-AEW541],112,103,99.4,93.3,57.2,100,102,99,92.9,69.6,98.1,97.9,106,86.6,52.5,99.8,97,94.5,80.8,45.1,96.4,93.6,92.4,68.1,32.3,3.3,2.4,4.5,5.2,7.4,1.4,1,,
CC(C)(C(=O)NCC(F)(F)C(F)(F)F)C(=O)N[C@@H]1C(=O)Nc2ccccc2-c2ccccc21 [RG4733],102,108,112,98.6,93.9,,,,,,96.9,99.1,99.6,94.4,97.3,94.4,92.3,97.8,89.8,82.2,102,111,101,102,92.1,0,,0,0.6,0,> 10,> 10,> 10,> 10
COc1ccncc1C(=O)NC(=O)Nc1ccc(-c2ccccc2)c(C(F)(F)F)c1 [S1P1-agonist-III],110,97.5,93.2,99.2,91.1,,,,,,106,107,101,98.4,98.2,100,90.6,95.5,99.1,87.8,95.3,104,95.5,107,97.1,0,,0,0,0,> 10,> 10,> 10,> 10
O=C(NCC(=O)N1CCCC1)Nc1ccc2cnccc2c1 [SGC-707],94.2,95.8,105,86.2,110,,,,,,99.2,93,103,97.3,96.8,98.1,97,95.7,100,93.1,93.6,117,98.4,103,97.3,0,,0,0,0,> 10,> 10,> 10,> 10
